Assay results reported in PubChem BioAssay (NCI).
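These data come from cells grown in 96-well plates and exposed to compound for 48 hours at five concentrations. Abbreviation: GI50, concentration required for 50% inhibition of growth. At the TGI there is no net growth.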

Columns and labels:
Assay in all cases: growth of human tumour cells (NCI), 48 h
K-562 leukemia = test system: K-562 leukemia
IGROV1 ovarian = test system: IGROV1 ovarian
CCRF-CEM leukemia = test system: CCRF-CEM leukemia
LOX IMVI melanoma = test system: LOX IMVI melanoma
SK-MEL-5 melanoma = test system: SK-MEL-5 melanoma
HT29 colon = test system: HT29 colon
RPMI-8226 leukemia = test system: RPMI-8226 leukemia
ACHN renal = test system: ACHN renal
BT-549 breast = test system: BT-549 breast
NCI-H522 lung = test system: NCI-H522 lung
T-47D breast = test system: T-47D breast
TK-10 renal = test system: TK-10 renal
SNB-19 CNS = test system: SNB-19 CNS
U251 CNS = test system: U251 CNS
HCT-116 colon = test system: HCT-116 colon
RXF 393 renal = test system: RXF 393 renal
SN12C renal = test system: SN12C renal
SNB-75 CNS = test system: SNB-75 CNS
KM12 colon = test system: KM12 colon
SK-MEL-28 melanoma = test system: SK-MEL-28 melanoma
M14 melanoma = test system: M14 melanoma
UACC-62 melanoma = test system: UACC-62 melanoma
MDA-MB-435 = test system: MDA-MB-435
MCF7 breast = test system: MCF7 breast
CAKI-1 renal = test system: CAKI-1 renal
SW-620 colon = test system: SW-620 colon
COLO 205 colon = test system: COLO 205 colon
NCI/ADR-RES ovarian = test system: NCI/ADR-RES ovarian
UO-31 renal = test system: UO-31 renal
SK-MEL-2 melanoma = test system: SK-MEL-2 melanoma
NCI-H226 lung = test system: NCI-H226 lung
MDA-MB-231 breast = test system: MDA-MB-231 breast
786-0 renal = test system: 786-0 renal
NCI-H460 lung = test system: NCI-H460 lung
OVCAR-3 ovarian = test system: OVCAR-3 ovarian
MOLT-4 leukemia = test system: MOLT-4 leukemia
SF-268 CNS = test system: SF-268 CNS
HOP-92 NSCLC = test system: HOP-92 NSCLC
HCT-15 colon = test system: HCT-15 colon
UACC-257 melanoma = test system: UACC-257 melanoma
OVCAR-5 ovarian = test system: OVCAR-5 ovarian
A549 NSCLC = test system: A549 NSCLC
HL-60(TB) leukemia = test system: HL-60(TB) leukemia
HS 578T breast = test system: HS 578T breast
A498 renal = test system: A498 renal
NCI-H23 lung = test system: NCI-H23 lung
HOP-62 NSCLC = test system: HOP-62 NSCLC
DU-145 prostate = test system: DU-145 prostate
PC-3 prostate = test system: PC-3 prostate
SF-295 CNS = test system: SF-295 CNS
HCC-2998 colon = test system: HCC-2998 colon
MALME-3M melanoma = test system: MALME-3M melanoma
EKVX NSCLC = test system: EKVX NSCLC
OVCAR-4 ovarian = test system: OVCAR-4 ovarian
SF-539 CNS = test system: SF-539 CNS
OVCAR-8 ovarian = test system: OVCAR-8 ovarian
SK-OV-3 ovarian = test system: SK-OV-3 ovarian

Work on O=C1c2[nH]cc(CN3CCN(CCO)CC3)c2C(=O)c2c1c(O)c1ccccc1c2O yielded a GI50 (K-562 leukemia) of 2.17 µM, a TGI (K-562 leukemia) of over 100 µM and a GI50 (IGROV1 ovarian) of 1.61 µM. The TGI (IGROV1 ovarian) was 15.1 µM, the GI50 (CCRF-CEM leukemia) was 1.63 µM and the GI50 (LOX IMVI melanoma) was 1.95 µM. It also gave a TGI (LOX IMVI melanoma) of 6.34 µM, a GI50 (SK-MEL-5 melanoma) of 1.12 µM and a TGI (SK-MEL-5 melanoma) of 3.27 µM. The GI50 (HT29 colon) was 12.3 µM, the TGI (HT29 colon) was 31.6 µM and the GI50 (RPMI-8226 leukemia) was 1.52 µM. For the same molecule, the TGI (RPMI-8226 leukemia) was 4.16 µM, the GI50 (ACHN renal) was 5.38 µM and the TGI (ACHN renal) was 23.3 µM. The GI50 (BT-549 breast) was 13.8 µM, the TGI (BT-549 breast) was 28.6 µM and the GI50 (NCI-H522 lung) was 2.08 µM. The TGI (NCI-H522 lung) was 9.05 µM, the GI50 (T-47D breast) was 19.2 µM and the TGI (T-47D breast) was 38.6 µM. For the same molecule, the GI50 (TK-10 renal) was 0.36 µM, the TGI (TK-10 renal) was 6.78 µM and the GI50 (SNB-19 CNS) was 14.8 µM. For the same molecule, the TGI (SNB-19 CNS) was 32.5 µM, the GI50 (U251 CNS) was 5.31 µM and the TGI (U251 CNS) was 25.9 µM. The GI50 (HCT-116 colon) was 1.76 µM, the TGI (HCT-116 colon) was 5.47 µM and the GI50 (RXF 393 renal) was 6.03 µM. For the same molecule, the TGI (RXF 393 renal) was 22.9 µM, the GI50 (SN12C renal) was 2.18 µM and the TGI (SN12C renal) was 9.92 µM. It also gave a GI50 (SNB-75 CNS) of 14.2 µM, a TGI (SNB-75 CNS) of 32.8 µM and a GI50 (KM12 colon) of 1.62 µM. For the same molecule, the TGI (KM12 colon) was 3.91 µM, the GI50 (SK-MEL-28 melanoma) was 13.6 µM and the TGI (SK-MEL-28 melanoma) was 28.7 µM. For the same molecule, the GI50 (M14 melanoma) was 1.69 µM, the TGI (M14 melanoma) was 3.86 µM and the GI50 (UACC-62 melanoma) was 4.53 µM. For the same molecule, the TGI (UACC-62 melanoma) was 9.01 µM, the GI50 (MDA-MB-435) was 1.84 µM and the TGI (MDA-MB-435) was 4.14 µM. It also gave a GI50 (MCF7 breast) of 5.63 µM, a TGI (MCF7 breast) of 21.9 µM and a GI50 (CAKI-1 renal) of 5.45 µM. The TGI (CAKI-1 renal) was 14.2 µM, the GI50 (SW-620 colon) was 1.68 µM and the TGI (SW-620 colon) was 3.48 µM. For the same molecule, the GI50 (COLO 205 colon) was 16.4 µM, the TGI (COLO 205 colon) was 47.4 µM and the GI50 (NCI/ADR-RES ovarian) was 9.64 µM. The TGI (NCI/ADR-RES ovarian) was 28.3 µM, the GI50 (UO-31 renal) was 3.82 µM and the TGI (UO-31 renal) was 18.8 µM. For the same molecule, the GI50 (SK-MEL-2 melanoma) was 2.77 µM, the TGI (SK-MEL-2 melanoma) was 8.06 µM and the GI50 (NCI-H226 lung) was 10.5 µM. It also gave a TGI (NCI-H226 lung) of 28.4 µM, a GI50 (MDA-MB-231 breast) of 4.89 µM and a TGI (MDA-MB-231 breast) of 16.3 µM. For the same molecule, the GI50 (786-0 renal) was 2.65 µM, the TGI (786-0 renal) was 11 µM and the GI50 (NCI-H460 lung) was 2.69 µM. It also gave a TGI (NCI-H460 lung) of 12.3 µM, a GI50 (OVCAR-3 ovarian) of 4 µM and a TGI (OVCAR-3 ovarian) of 16.3 µM. It also gave a GI50 (MOLT-4 leukemia) of 1.38 µM, a TGI (MOLT-4 leukemia) of 9.48 µM and a GI50 (SF-268 CNS) of 5.9 µM. It also gave a TGI (SF-268 CNS) of 24.2 µM, a GI50 (HOP-92 NSCLC) of 1.14 µM and a TGI (HOP-92 NSCLC) of 9.56 µM. For the same molecule, the GI50 (HCT-15 colon) was 2.87 µM, the TGI (HCT-15 colon) was 18.6 µM and the GI50 (UACC-257 melanoma) was 8.33 µM. It also gave a TGI (UACC-257 melanoma) of 25.2 µM, a GI50 (OVCAR-5 ovarian) of 16.5 µM and a TGI (OVCAR-5 ovarian) of 33 µM. It also gave a GI50 (A549 NSCLC) of 7.15 µM, a TGI (A549 NSCLC) of 24.4 µM and a GI50 (HL-60(TB) leukemia) of 2.83 µM. The TGI (HL-60(TB) leukemia) was 48.9 µM, the GI50 (HS 578T breast) was 8.14 µM and the TGI (HS 578T breast) was 24.4 µM. It also gave a GI50 (A498 renal) of 13.2 µM, a TGI (A498 renal) of 27.8 µM and a GI50 (NCI-H23 lung) of 14.9 µM. For the same molecule, the TGI (NCI-H23 lung) was 39.4 µM, the GI50 (HOP-62 NSCLC) was 1.92 µM and the TGI (HOP-62 NSCLC) was 15 µM. For the same molecule, the GI50 (DU-145 prostate) was 4.53 µM, the TGI (DU-145 prostate) was 18.2 µM and the GI50 (PC-3 prostate) was 2.7 µM. It also gave a TGI (PC-3 prostate) of 8.78 µM, a GI50 (SF-295 CNS) of 2.56 µM and a TGI (SF-295 CNS) of 10.9 µM. It also gave a GI50 (HCC-2998 colon) of 6.51 µM, a TGI (HCC-2998 colon) of 21.1 µM and a GI50 (MALME-3M melanoma) of 7.69 µM. The TGI (MALME-3M melanoma) was 24.9 µM, the GI50 (EKVX NSCLC) was 8.14 µM and the TGI (EKVX NSCLC) was 22.5 µM. The GI50 (OVCAR-4 ovarian) was 13.3 µM, the TGI (OVCAR-4 ovarian) was 29.4 µM and the GI50 (SF-539 CNS) was 1.52 µM. The TGI (SF-539 CNS) was 3.11 µM, the GI50 (OVCAR-8 ovarian) was 5.52 µM and the TGI (OVCAR-8 ovarian) was 17.7 µM. It also gave a GI50 (SK-OV-3 ovarian) of 18.7 µM and a TGI (SK-OV-3 ovarian) of 37.5 µM.
